Reference: US10561658B2, “Thieno- and pyrrolopyrimidine analogues as anticancer agents and methods of use thereof” (UNIVERSITY OF MARYLAND, BALTIMORE COUNTY, priority 2015, dated 2020)
Values after ≈ are worked out from the molar mass of the structure shown. Like-named read-outs stand apart in the source and are kept apart here.

Columns and labels:
[1] = tested on: murine leukemia L1210 cells; assay: Cell proliferation assay, L1210; format: cell-based; details: Mus musculus
Procedure: Cell proliferation assays for several of the compounds were performed on L1210, a mouse lymphocytic leukemia cell line; CCRF-CEM [39] an acute lymphoblastic leukemia cell line; and HeLa, a human cancer cell line derived from a human cervical adenocarcinoma. Murine Leukemia L1210, human lymphocytic CEM and human cervix carcinoma HeLa cells were obtained from the American Type Culture Collection (ATCC) (Rockville, Md.). All assays were performed in 96-well microtiter plates. To each well were added (5-7.5)×10^4 tumor cells and a given amount of the test compound. The cells were allowed to proliferate for 48 h (murine leukemia L1210 cells) or 72 h (human lymphocytic CEM and human cervix carcinoma HeLa cells) at 37° C. in a humidified CO2-controlled atmosphere. At the end of the incubation period, the cells were counted in a Coulter counter. The IC50 (50% inhibitory concentration) was defined as the concentration of the compound that inhibited cell proliferation by 50%. […] Presence of C7 iodine on the 2,4-dichloro pyrrolo[3,2-d] (compound 20) increases the anticancer activity by a factor of 5 when compared to compound 19. […] This alludes to a) importance of C7-I towards activity against cancer cell lines for the 2,4-O-benzylated analogues (15 and 16).

[2] = tested on: Escherichia coli ATCC 25922; assay: Antimicrobial growth inhibition, E. coli; format: cell-based; details: ATCC25922; Escherichia coli ATCC 25922, 100 μM
Procedure: (§1) Evaluation of antimicrobial activity in vitro. Compounds were tested against the following panel of bacteria and fungi purchased from the American Type Culture Collection (ATCC). Briefly, bacteria were grown to mid-log phase, diluted with fresh medium to an optical density at 600 nm (OD600) of 0.030-0.060 and then diluted again 1:10. This suspension (195 μL) was added to wells in a 96 well microtiter plate (Sarstedt) and 5 μL of compound dissolved in DMSO was added to give a final concentration of 100-0.1 μM at 2.5% DMSO by volume. A DMSO negative control and standard antibiotic positive controls were included in each plate. All compounds were tested in triplicate for each concentration. Plates were sealed with parafilm, placed in a Ziploc bag to prevent evaporation, and incubated at 30° C. (fungi) or 37° C. (bacteria) for 16-20 hours (48 hours for C. neoformans). The OD600 values for each well were determined with a plate reader (Biotek, EL800) and the data were standardized to the DMSO control wells after subtracting the background from blank medium. Initial single concentrations were tested at 100 μM and active compounds were further tested with at least nine concentrations for a full dose response. Dose response curves were generated using GraphPad Prism 5 software and used to determine the MIC95 concentrations (minimal concentration that inhibits 95% of growth). Compounds 1, 2, 5 and 19 were screened for growth inhibition activity against a panel of bacteria and fungi at a concentration of 100 as shown in Table 2. Compound 5 was included to test the importance of the C4-Cl substituent for activity across a broader range of biological systems.

[3] = tested on: NCI-60 human tumor cell lines; assay: NCI60 human tumor cell line screen; format: cell-based; details: NCI60, FIG. 4
Procedure: Lead compounds 1, 2 and 19 were evaluated for anti-cancer activity at nM to uM concentrations in cellular screens.
The lead halogenated pyrrolopyrimidines and thienopyrimidines of the present invention were tested in the human cell line screen which is composed of 60 different human tumor cell lines (NCI-60) representing leukemia, melanoma, lung cancer, colon cancer, brain cancer, ovary cancer, breast cancer, prostate cancer and kidney cancer. Testing specifics can be found at the National Cancer Institute at http://dtp.nci.nih.gov/branches/btb/ivelsp.html. Compounds 1, 2 and 19 were testing initially at a single dose (10^−5M) in the full cell panel. The results of the one-dose are reported as a mean graph of the percent of the growth of the treated cells. Both growth inhibition (values between 0 and 100) and lethality (values less than 0) are detectable. To evaluate the test results, a value of 100 means no growth inhibition. A value of 40 would mean 60% growth inhibition. A value of zero means no net growth over the course of the experiment. A value of −40 means 40% lethality and a value of −100 means all the cells are dead.

Cryptococcus neoformans = assay: Antifungal growth inhibition and MIC95, C. neoformans strains; format: cell-based
Procedure: as §1
(§2) Compounds 1 and 2 were further tested against the susceptible fungal strains to determine the MIC95 values.

[4] = tested on: Staphylococcus aureus subsp. aureus (MRSA) ATCC 43300; assay: Antimicrobial growth inhibition, S. aureus (MRSA); format: cell-based; details: Staphylococcus aureus (MRSA) ATCC 43300, 100 μM
Procedure: as §1

L1210 leukemia cell line = assay: Apoptosis analysis (annexin V staining), L1210; format: cell-based, mouse; details: for cells undergoing apoptosis (annexin V): L1210, 1 μM, 48 h
Procedure: FIGS. 5 A and B contains apoptosis analysis (annexin V staining) in the L1210 leukemia cell line relating to compounds 1 (ii), 2 (iii) and 19 (iv) relative to a control (i). After incubation with 1 μM compound (1) for 48 h, 60% of the cells were observed undergoing apoptotic cell death, with the vast majority of these in early apoptosis (FIG. 5A (ii)).
Many antineoplastic compounds arrest cell proliferation by activating specific checkpoints that block progression through the cell cycle. To test whether compounds 1 or 2 inhibited cell proliferation by this mechanism, their effects on L1210 cell cycle distributions were monitored using propidium iodide staining and flow cytometry (FIG. 7). Cell cycle and apoptosis studies were conducted on L1210, a mouse lymphocytic leukemia cell line obtained from the American Type Culture Collection and grown in Dulbecco's Modified Eagle's Medium (DMEM) plus 10% fetal bovine serum (FBS). 2×10^6 cells were seeded in 100 mm dishes and treated with vehicle alone or compounds 1 or 2 at the IC50 values determined by cell viability assays or an equivalent volume of DMSO. At 24 and 48 h following treatment the cells were collected, fixed, and stained with propidium iodide (Sigma Aldrich) immediately before analysis by flow cytometry. Vehicle-treated cells were largely confined to G1 and S phases, with very small (<5%) subpopulations in the G2/M phase or showing sub-(<G1) or super-genomic (>G2) DNA content.

[5] = tested on: Candida albicans ATCC 10231; assay: Antifungal growth inhibition and MIC95, C. albicans; format: cell-based; details: ATCC10231; for inhibition at 100 µM: Candida albicans ATCC 10231, 100 μM; for MIC: Candida albicans, C. albicans ATCC 10231, minimum concentration for inhibition by 95%
Procedure: as §1, §2

[6] = tested on: Bacillus subtilis ATCC 6633; assay: Antimicrobial growth inhibition, B. subtilis; format: cell-based; details: ATCC6633; Bacillus subtilis ATCC 6633, 100 μM
Procedure: as §1

[7] = FIG. 7 concentration, said in b126 to be the IC50 from cell viability assays, read-out: IC50 concentration used for L1210 cell cycle analysis
[8] = ATCC66031, Cryptococcus neoformans ATCC 66031, 100 μM
[9] = C. neoformans B4546, minimum concentration for inhibition by 95%
[10] = C. neoformans JEC20, minimum concentration for inhibition by 95%
[11] = C. neoformans VANC-R265, 100 μM

| SMILES | IC50 [1, 7] | inhibition at 100 µM [2] | activity against non-small cell lung and CNS cancers [3] | anti-cancer activity against melanoma, breast, colon and renal cancers [3] | inhibition at 100 µM (Cryptococcus neoformans; [8]) | inhibition at 100 µM (Cryptococcus neoformans; C. neoformans B4546, 100 μM) | MIC (Cryptococcus neoformans; [9]) | inhibition at 100 µM (Cryptococcus neoformans; C. neoformans JEC20, 100 μM) | MIC (Cryptococcus neoformans; [10]) | inhibition at 100 µM (Cryptococcus neoformans; [11]) | inhibition at 100 µM [4] | cells undergoing apoptosis (annexin V) (L1210 leukemia cell line) | inhibition at 100 µM [5] | MIC [5] | inhibition at 100 µM [6] | Annexin V positive cells (L1210 leukemia cell line; L1210, 5.4 μM) | cells consistent with late apoptosis (L1210 leukemia cell line; L1210, 5.4 μM) | IC50 ([1]; 48 h proliferation, Coulter counter, read-out: IC50 L1210) |
| --- | --- | --- | --- | --- | --- | --- | --- | --- | --- | --- | --- | --- | --- | --- | --- | --- | --- | --- |
| Clc1nc(Cl)c2sccc2n1 [Compound 1, 2,4-Dichlorothieno[3,2-d]pyrimidine] | 0.32 µM | < 43% | little or no activity | selective activity | 101% | 96% | 34.6 µM (≈ 7.1 µg/mL) | 100% | 16.6 µM (≈ 3.4 µg/mL) | 93% | < 43% | 60% | 99% | 23.4 µM (≈ 4.8 µg/mL) | 43% | – | – | – |
| Clc1nc(Cl)c2scc(Br)c2n1 [Compound 2, 7-Bromo-2,4-dichlorothieno[3,2-d]pyrimidine] | 5.4 µM | < 43% | little or no activity | selective activity | 55% | 82% | 7 µM (≈ 1.99 µg/mL) | 91% | 5.8 µM (≈ 1.65 µg/mL) | 67% | < 43% | – | 99% | 10.7 µM (≈ 3.04 µg/mL) | < 43% | 55% | 40% | – |
| Clc1nc(Cl)c2[nH]ccc2n1 [Compound 19, 2,4-Dichloropyrrolo[3,2-d]pyrimidine] | – | < 43% | little or no activity | selective activity | < 43% | < 43% | – | < 43% | – | < 43% | < 43% | 85% | < 43% | – | < 43% | – | – | 6.8 ± 2.8 µM |
